# Where a name gives a salt, the structure may show the parent alone.
# Tested on: K562
# Experiment: cells
# Set-up: MTT cell growth inhibition assay, absorbance at 490 nm
# Conditions: 48 h; inhibitor
# Experimental: Exponential‐phase cells were seeded into 96‐well plates at a density of 2 × 10^4 cells per well in complete medium. After 24 h, cells were treated with drugs at indicated concentrations and incubated for 48 h. Fresh medium containing 20 μL MTT solution (5 mg·mL^−1) was then added to each well. Then plates were incubated for another 4 h at 37 °C. After removing the medium, 150 μL DMSO was added to each well. The absorbance was recorded at 490 nm in the microplate reader and the inhibition ratio (I%) was calculated. The cell growth assay was conducted as described previously. K562 cells were cultured in IMDM containing 10% fetal bovine serum, 100 U·mL^−1 penicillin and 100 U·mL^−1 streptomycin. […] MEG‐01 cells were cultured in DMEM containing 10% fetal bovine serum, 100 U·mL^−1 penicillin and 100 U·mL^−1 streptomycin. […] Cells were grown at 37 °C in a humidified atmosphere with 5% CO2. […] To identify an EPHB4‐specific inhibitor with a potential of rapid translation into clinic, a pool of clinically approved TKIs and compounds was screened in this study (Fig. S2 and Table S4).
row,Structure (SMILES),"Inhibition rate (%, 10 μM) [%]"
1,CN1CC[C@]23c4c5ccc(O)c4O[C@H]2[C@@H](O)C=C[C@H]3[C@H]1C5 [morphine],-46.72

# Same assay, conditions: Homo sapiens, K562, 48 h, read-out: Inhibition rate (%, 10 μM)
row,Structure (SMILES),inhibition at 10 µM [%]
1,O=c1[nH]c2ccccc2n1CCCN1CCC(n2c(=O)[nH]c3cc(Cl)ccc32)CC1 [domperidone],-38.6
2,COc1cc(C=O)ccc1O [vanillin],-86.2
3,O=C(/C=C/c1ccc(O)c(O)c1/C=C/c1ccc(O)c(O)c1)O[C@H](Cc1ccc(O)c(O)c1)C(=O)O [salvianolic acid A],-32.3
4,O=c1ccc2cc3ccoc3cc2o1 [psoralen],-51.5
5,COc1ccc2c3c1O[C@H]1[C@@H](O)C=C[C@H]4[C@@H](C2)N(C)CC[C@@]341 [codeine],-64
6,C[C@@H]1C(=O)O[C@H](C)[C@H]1C[C@@H](O)[C@](C)(O)[C@H]1CC[C@@]2(O)C3=CC(=O)[C@@H]4C[C@@H](O)[C@@H](O)C[C@]4(C)[C@H]3CC[C@]12C [cyasterone],-50.6
7,COC(=O)C[C@](O)(CCCC(C)(C)O)C(=O)O[C@@H]1C(OC)=C[C@]23CCCN2CCc2cc4c(cc2[C@H]13)OCO4 [homoharringtonine],68.7
8,CN(C)CCOC(c1ccccc1)c1ccccc1 [diphenhydramine],-37.9
9,CC(C)NCC(O)c1ccc(NS(C)(=O)=O)cc1 (stereo not drawn) [sotalol],-52.8
10,CN[C@@H](C)[C@H](O)c1ccccc1 [ephedrine hydrochloride],-29
11,CNC(=O)c1cc(Oc2ccc(NC(=O)Nc3ccc(Cl)c(C(F)(F)F)c3)cc2)ccn1 [sorafenib],73.4
12,CC(C)NC(=N)NC(=N)Nc1ccc(Cl)cc1 [proguanil],-7.92
13,COc1cc2nc(N(C)CCCNC(=O)C3CCCO3)nc(N)c2cc1OC (stereo not drawn) [alfuzosin],-37.2
14,OCc1cc(C(O)CNCCCCCCOCCCCc2ccccc2)ccc1O (stereo not drawn) [salmeterol],-72.7
15,COc1ccc2c(c1OC)CN1CCc3cc4c(cc3C1=C2)OCO4 [dihydroberberine],30.6
16,COc1ccc2ccc(=O)oc2c1CC=C(C)C [osthole],-21.2
17,O=C(/C=C/c1ccc(O)c2c1[C@H](C(=O)O[C@H](Cc1ccc(O)c(O)c1)C(=O)O)[C@@H](c1ccc(O)c(O)c1)O2)O[C@H](Cc1ccc(O)c(O)c1)C(=O)O [salvianolic acid B],-40.8
18,CC[C@H]1CN2CC[C@]3(C(=O)Nc4ccccc43)[C@@H]2C[C@@H]1/C(=C\OC)C(=O)OC [rhynchophylline],-47.3
19,CN1CCC(=C2c3ccccc3C=Cc3ccccc32)CC1 [cyproheptadine],-38.4
20,CC(=O)Oc1ccc2c3c1O[C@H]1[C@@H](OC(C)=O)C=C[C@H]4[C@@H](C2)N(C)CC[C@@]341 [heroin],-30.2
21,O=C(O)c1cn(C2CC2)c2cc(N3CCNCC3)c(F)cc2c1=O [ciprofloxacin],-3.17
22,COCCOC(=O)C1=C(C)NC(C)=C(C(=O)OC(C)C)C1c1cccc([N+](=O)[O-])c1 (stereo not drawn) [nimodipine],-69.7
23,CN(C)C(=O)Oc1cc(OC(=O)N(C)C)cc(C(O)CNC(C)(C)C)c1 (stereo not drawn) [bambuterol],-43.1
24,CC(C)(C)NCC(O)c1ccc(O)c(CO)c1 (stereo not drawn) [salbutamol],-65.8
25,CCOc1nc2cccc(C(=O)O)c2n1Cc1ccc(-c2ccccc2-c2nnn[nH]2)cc1 [candesartan],-49.7

row,Structure (SMILES),inhibition at 10 µM [%]
1,Nc1nc2c(ncn2COCCO)c(=O)[nH]1 [acyclovir],-42.6
2,CC(C)NCC(O)c1ccccc1Cl (stereo not drawn) [clorprenaline],-36.2
3,CS(=O)(=O)CCNCc1ccc(-c2ccc3ncnc(Nc4ccc(OCc5cccc(F)c5)c(Cl)c4)c3c2)o1 [lapatinib],98.8
4,C=C1C(=O)O[C@@]23[C@H]1CC[C@@H](C)[C@@H]2CC[C@@]1(C)O[C@@H]31 [arteannuin b],-8.46
5,COc1ccc(CCN(C)CCCC(C#N)(c2ccc(OC)c(OC)c2)C(C)C)cc1OC (stereo not drawn) [verapamil],66
6,NC12CC3CC(CC(C3)C1)C2 [amantadine],-58.8
7,CCOC(=O)C1=C(C)NC(C)=C(C(=O)OC)C1c1cccc([N+](=O)[O-])c1 (stereo not drawn) [nitrendipine],-26.4
8,C[C@@H]1CC[C@H]2[C@@H](C)C(=O)O[C@@H]3O[C@@]4(C)CC[C@@H]1[C@]32OO4 [artemisinin],-161
9,Cc1ccnc2c1NC(=O)c1cccnc1N2C1CC1 [nevirapine],-47
10,CC(C)=CCOc1c2occc2cc2ccc(=O)oc12 [imperatorin],-7.73
11,C#Cc1cccc(Nc2ncnc3cc(OCCOC)c(OCCOC)cc23)c1 [erlotinib],3.52
12,Cc1cc(O)c2c(c1)C(=O)c1cc(O)cc(O)c1C2=O [emodin],6.9
13,CCN(CC)CC(=O)Nc1c(C)cccc1C [lidocaine],-38.5
14,CC(C)[C@H](N)C(=O)OCCOCn1cnc2c(=O)nc(N)[nH]c21 [valaciclovir],-63.9
15,C[C@H]1COC2=C1C(=O)C(=O)c1c2ccc2c1CCCC2(C)C [cryptotanshinone],-72.9
16,CCN(CC)CCNC(=O)c1c(C)[nH]c(/C=C2\C(=O)Nc3ccc(F)cc32)c1C [sunitinib],73.5
17,CCCCC(=O)N(Cc1ccc(-c2ccccc2-c2nnn[nH]2)cc1)[C@H](C(=O)O)C(C)C [valsartan],-32.4
18,COC(=O)CCc1ccc(OCC(O)CNC(C)C)cc1 (stereo not drawn) [brevibloc],-12.6
19,O=C(O)[C@H]1O[C@@H](Oc2cc3oc(-c4ccccc4)cc(=O)c3c(O)c2O)[C@H](O)[C@@H](O)[C@@H]1O [baicalin],-31
20,COC(=O)C1=C(C)NC(C)=C(C(=O)OCCN(C)Cc2ccccc2)C1c1cccc([N+](=O)[O-])c1 (stereo not drawn) [nicardipine],-74.2
21,OCCOCCN1CCN(C2=Nc3ccccc3Sc3ccccc32)CC1 [quetiapine],-46.2
22,CN(C)CCC=C1c2ccccc2COc2ccccc21 [doxepin],-54.9
23,CCOC(=O)C1=C(COCCN)NC(C)=C(C(=O)OC)C1c1ccccc1Cl (stereo not drawn) [amlodipine],-59.8
24,COC(=O)C1=C(C)NC(C)=C(C(=O)OC)C1c1ccccc1[N+](=O)[O-] [nifedipine],6.88
25,Cc1cc2c(s1)Nc1ccccc1N=C2N1CCN(C)CC1 [olanzapine],-53.5

row,Structure (SMILES),inhibition at 10 µM [%]
1,CCCc1nc(C(C)(C)O)c(C(=O)O)n1Cc1ccc(-c2ccccc2-c2nnn[nH]2)cc1 [olmesartan],-34.8
2,O=C(/C=C/c1ccc(O)c2oc(-c3ccc(O)c(O)c3)cc12)O[C@H](Cc1ccc(O)c(O)c1)C(=O)O [salvianolic acid C],-2.73
3,CC(NC(C)(C)C)C(=O)c1cccc(Cl)c1 (stereo not drawn) [bupropion],-48.5
4,Cc1nnc(C(C)C)n1[C@@H]1C[C@H]2CC[C@@H](C1)N2CC[C@H](NC(=O)C1CCC(F)(F)CC1)c1ccccc1 [maraviroc],-56.3
5,NCCc1ccc(O)c(O)c1 [dopamine],-62.3
6,CN(C)CCC(c1ccc(Cl)cc1)c1ccccn1 (stereo not drawn) [chlorpheniramine],-42.9
7,COc1ccc(C[C@H]2COC(=O)[C@@H]2Cc2ccc(O[C@@H]3O[C@H](CO)[C@@H](O)[C@H](O)[C@H]3O)c(OC)c2)cc1OC [arctiin],-62.6
8,CCCCc1nc(Cl)c(CO)n1Cc1ccc(-c2ccccc2-c2nnn[nH]2)cc1 [losartan],-72.9
9,CC(Cc1ccc(O)cc1)NCC(O)c1cc(O)cc(O)c1 (stereo not drawn) [fenoterol],-62
10,COc1cc2nc(N3CCN(C(=O)C4COc5ccccc5O4)CC3)nc(N)c2cc1OC (stereo not drawn) [doxazosin],-84.5
11,COc1ccc2cc3[n+](cc2c1OC)CCc1cc2c(cc1-3)OCO2 [berberine],49.8
12,Cc1ccc(N(CC2=NCCN2)c2cccc(O)c2)cc1 [phentolamine],-43.1
13,CCOC(=O)C1=C[C@@H](OC(CC)CC)[C@H](NC(C)=O)[C@@H](N)C1 [oseltamivir],-47.6
14,CN(C)C/C=C/C(=O)Nc1cc2c(Nc3ccc(F)c(Cl)c3)ncnc2cc1O[C@H]1CCOC1 [afatinib],78.6
15,CC(C)(C)NCC(O)c1cc(O)cc(O)c1 (stereo not drawn) [terbutaline],-58.2
16,CC(C)(C)NC(=O)[C@@H]1CN(Cc2cccnc2)CCN1C[C@@H](O)C[C@@H](Cc1ccccc1)C(=O)N[C@H]1c2ccccc2C[C@H]1O [indinavir],-52.2
17,O=C(/C=C/c1ccc(O)cc1)c1ccc(O)cc1O [isoliquiritigenin],-123
18,CCOc1ccccc1OCCN[C@H](C)Cc1ccc(OC)c(S(N)(=O)=O)c1 [tamsulosin],-35.2
19,CNC(=O)c1cc(Oc2ccc(NC(=O)Nc3ccc(Cl)c(C(F)(F)F)c3)c(F)c2)ccn1 [regorafenib],8.49
20,Cc1ccc(Nc2nccc(N(C)c3ccc4c(C)n(C)nc4c3)n2)cc1S(N)(=O)=O [pazopanib],76.2
21,Cc1cn(-c2cc(NC(=O)c3ccc(C)c(Nc4nccc(-c5cccnc5)n4)c3)cc(C(F)(F)F)c2)cn1 [nilotinib],71.7
22,CC(C)=CCOc1c2ccoc2cc2oc(=O)ccc12 [isoimperatorin],-85.9
23,COc1cc2nc(N3CCN(C(=O)C4CCCO4)CC3)nc(N)c2cc1OC (stereo not drawn) [terazosin],-57

# Same assay, conditions: Homo sapiens, K562, 48 h; read-out: Inhibition rate (%, 10 μM)
row,Structure (SMILES),inhibition at 10 µM [%]
1,COC1=C[C@@H]2[C@@H]3Cc4ccc(OC)c(O)c4[C@]2(CCN3C)CC1=O [sinomenine],-4.7
